Results on 2 molecules are retold here after patent publication US11155552B2, “Rutaecarpine analogs and applications thereof” (TAIPEI MEDICAL UNIVERSITY, priority 2018, dated 2021).

For data set [1], the system named is KLF10 KO mice. In words: Blood-air-barrier thickness by TEM in OVA/Alum-challenged KLF10 KO mice. The class given is in vivo. To be noted: KLF-10 KO mice; oral; OVA/Alum group 586 nm, control group 348 nm; FIG. 6. The procedure:
Blood-Air-Barrier (alveolar-capillary membrane), gas exchanging region of the lungs, was measured to perform the lung function. After the KLF-10 KO mice were challenged with OVA/Alum and oral administration of RUT or F-RUT, the lung was harvested to measure the thickness of blood-air-barrier by TEM. The average thickness of blood-air-barrier was significant increased in OVA/Alum group (586 nm compared to 348 nm in control group) and reversed by RUT or F-RUT (418 and 393 nm, respectively), see FIG. 6.

Another data set relates to H460. As to the kind of experiment: MTT cell viability assay, H460. To be noted: H460 cells; 0-20 μM; 24 h; FIG. 1(c). The class given is cell-based. The procedure:
(§1) An MTT assay to test cell viability was performed based on the conversion of the yellow tetrazolium salt to the purple formazan product. Cells (10^4 cells/well) were grown in a 96-well plate supplemented with standard culture medium. Cells were treated with RUT and F-RUT (0-20 μM) for 24 h. An MTT stock solution (5 mg of MTT/mL of phosphate-buffered saline; PBS) was added to the growing cultures for 2 h. The absorbance was measured with a spectrophotometer at 560 nm. DMSO alone was measured as a reading control. Data were reported as the mean±SEM values of five independent determinations.

Data set [2] concerns A2780 cells. In words: Transwell Matrigel cell invasion assay. It counts as cell-based. To be noted: 0-2.5 μM, 24 h, FIG. 3(b). Here is the method: A2780 cell invasion was evaluated using 24-well transwell inserts (8-μm-pore filters, Merck Millipore) individually coated with Matrigel (BD Biosciences, Bedford, Mass., USA). A2780 cells (2×10^4 cells in each well) were cultured for 24 h with serum-free minimum essential medium (MEM) and then treated with F-RUT (1.25 or 2.5 μM) for another 24 h in the upper chamber of the transwell. Medium containing 10% FBS was placed in the lower chamber. At the end of incubation, non-migrated cells were removed using a cotton swab; cells that had penetrated to the opposite surface of the filter were fixed with 4% formaldehyde and stained with 2% crystal violet. Stained cells were counted and photographed under a phase-contract optical microscope at 200× magnification. Three independent experiments were performed as described elsewhere.

For another data set, the system named is TNF-α. In words: TNF-α release by LPS-treated RAW264.7 macrophages (mouse TNF-α Quantikine kit). The class given is cell-based. To be noted: FIG. 1(b). The procedure:
FIGS. 1A thru 1C show the effects of 10-fluoro-2-methoxyrutaecarpine (F-RUT) on nitric oxide (NO) and tumor necrosis factor (TNF)-α release by lipopolysaccharide (LPS)-treated (40 ng/mL) RAW264.7 macrophages: (a) NO levels were detected in culture medium using the Griess reaction; (b) TNF-α release in cell supernatants was detected using a mouse TNF-α Quantikine kit; (c) Cell viability upon F-RUT and rutaecarpine (RUT) treatment for 24 h in an MTT assay. Values are expressed as the mean±SE. *p<0.05, **p<0.01.
(§2) NO production was evaluated by measuring the nitrite concentration in supernatants of cultured RAW264.7 macrophages. Cells were first seeded at a density of 2×10^5 cells/mL in 24-well plates for 24 h, followed by co-treatment with different concentrations of F-RUT with lipopolysaccharide (LPS) (40 ng/mL) for another 24 h. The amount of nitrite in cell culture supernatants was detected using the Griess reagent (1% sulfanilamide in 5% phosphoric acid and 0.1% naphthylethylenediamine dihydrochloride in water). Data are reported as the mean±standard error of the mean (SEM) values of three independent determinations.

For the next data set, the system named is TRPV1. In words: TRPV1 protein in human aortic endothelial cells (immunoblotting). It counts as cell-based. To be noted: HAECs; 20 μM; 15 min; normalized with α-tubulin. The procedure:
(§3) Protein samples were separated and resolved by sodium dodecylsulfate polyacrylamide gel electrophoresis (SDS-PAGE) and electrotransferred onto a polyvinylidene difluoride (PVDF) membrane. The membrane was incubated with a primary antibody at 4° C. overnight, and then incubated with a horseradish peroxidase (HRP)-conjugated secondary immunoglobulin G (IgG) antibody; immunoreactive bands were visualized with PerkinElmer enhanced chemiluminescent reagents.
(§4) TRPV1 is reportedly present in ECs of arteries. To validate the expression of TRPV1 in the endothelium, the TRPV1 protein of human aortic ECs (HAECs) was detected using immunoblotting; the method of Western Blot Analysis has been stated in Example 4. F-RUT treatment (20 μM) for 15 min increased TRPV1 protein amounts two-fold compared to the control group after normalization with α-tubulin levels (FIG. 4). The effect of F-RUT on the phosphorylation of eNOS in HAECs is further examined because NO production is consequently regulated by the phosphorylation of eNOS.

The next data set relates to iNOS. In words: iNOS protein expression in LPS-treated RAW264.7 macrophages (Western blot). It counts as cell-based. To be noted: FIG. 2(a). The procedure: as §3
Another data set relates to RAW264.7 macrophages. As to the kind of experiment: NO production (nitrite, Griess reagent) by LPS-treated RAW264.7 macrophages. It counts as cell-based. To be noted: LPS 40 ng/mL co-treatment 24 h; 0-20 μM; FIG. 1(a). The procedure:
The RAW264.7 macrophage cell line and A2780 ovarian carcinoma cells were grown in Dulbecco's modified Eagle medium (DMEM) containing 10% fetal bovine serum (FBS), 100 U/mL penicillin, 100 μg/mL streptomycin, 1 mM sodium pyruvate, 4.5 g/L glucose, 4 mM 1-glutamine, and 1.5 g/L sodium bicarbonate at 37° C. in a humidified atmosphere with 5% CO2. Primary human aortic ECs (HAECs) were grown in a MesoEndo Endothelial Cell Growth Medium Kit (Cell Applications, San Diego, Calif., USA) supplemented with 10% FBS at 37° C. in a humidified atmosphere with 5% CO2.
as §2

In another data set the test system is CL1-3. In words: MTT cell viability assay, CL1-3. The class given is cell-based. To be noted: CL1-3 cells; 0-20 μM; 24 h; FIG. 1(c). The procedure: as §1
The next data set concerns BALB/c mice. As to the kind of experiment: Lung inflammation in OVA/alum-challenged BALB/c mice. It counts as in vivo. To be noted: alternate-day oral administration, FIG. 5(a). The procedure: (§5) BALB/c mice (six weeks of age) were obtained from the Animal Center of the College of Medicine, National Taiwan University (Taipei, Taiwan), and sensitized with an intraperitoneal injection of 20 μg of ovalbumin (OVA) emulsified in 2 mg of aluminum hydroxide in a total volume of 200 μL phosphate-buffered saline (PBS) on day 0, and boosted with 50 μg of OVA emulsified in 4 mg of aluminum hydroxide on days 14 and 28. RUT or F-RUT was given by oral administration on days 30, 32, 34, 36, and 38. For post-challenge, all mice were treated intranasally with OVA (100 μg in a total volume of 40 μL PBS) on days 40, 41, 42, and 43. At 24 h after the last OVA challenge, mice were sacrificed, and their organs were collected. All experimental procedures were reviewed and approved by the Institutional Animal Care and Use Committee or Panel. Lung tissues were fixed in 4% paraformaldehyde (sc-281692; Santa Biotechnology) and embedded in paraffin. Tissue sections were made at a 5-μm thickness, and stained with hematoxylin and eosin (H&E) solution for examination of inflammation.

A further data set concerns eNOS. In words: eNOS phosphorylation in human aortic endothelial cells (immunoblotting). It counts as cell-based. To be noted: HAECs; 20 μM; 15 min; normalized with total eNOS. Here is the method: as §3, §4
Data set [3] relates to COX-2. In words: COX-2 enzyme activity.
For the next data set, the system named is RAW264.7. As to the kind of experiment: MTT cell viability assay, RAW264.7. The class given is cell-based. Here is the method:
as §1

Data set [4] relates to COX-2. As to the kind of experiment: COX-2 protein expression in LPS-treated RAW264.7 macrophages (Western blot). The class given is cell-based. To be noted: FIG. 2(a). Here is the method:
as §3

Another data set concerns zebrafish. As to the kind of experiment: LPS-induced ROS level in zebrafish. To be noted: 5 ng/ml F-RUT, LPS 10 and 20 ng/ml, FIG. 7. It counts as in vivo.
A further data set deals with NF-κB. As to the kind of experiment: NF-κB-dependent luciferase reporter assay in LPS-induced macrophages. The class given is cell-based. To be noted: 0-2.5 μM; LPS 40 ng/mL 24 h; FIG. 2(b). The procedure: RAW264.7 macrophages were seeded in a 96-well plate with DMEM. Then, cells were transfected with the pGL4.32 [luc2P/NF-κB-RE/Hygro] (Promega, Madison, Wis., USA) plasmid reporter gene using TurboFect Transfection Reagent (Fermentas, Glen Burnie, Md., USA). At 24 h after transfection, cells were treated with LPS (40 ng/mL) and F-RUT for 24 h in serum-free medium. Then the luciferase activity was detected by the luminescence measured in a luminescence microplate reader (Thermo Varioskan Flash, Waltham, Mass., USA) using a ONE-Glo luciferase assay kit (Promega). Luciferase activities were normalized to protein concentrations.

Data set [5] deals with KLF10 KO mice. As to the kind of experiment: Lung inflammation and collagen formation in OVA/alum-challenged KLF10 KO mice. The class given is in vivo. The procedure: as §5
KLF10 gene is regulated by transforming growth factor (TGF)-β/Smad. Deletion of Klf10 in mice is associated with significant inflammation of the lungs challenged with OVA/alum for 44 days. In another experiment, KLF-10 KO mice was used. […]

In data set [6] the test system is A2780 cells. In words: Wound-healing cell migration assay. The class given is cell-based. To be noted: 0-5 μM, 0-24 h, FIG. 3(a). The procedure: A2780 cells were cultured at a density of 2×10^5 cells/well in 6-well plates and incubated at 37° C. for 24 h. A centerline in the cells was scratched using a 200-μL pipette tip and washed with PBS. Then, new complete medium was added and treated with or without 1 and 2.5 μM of F-RUT for 24 h. At the endpoint of incubation, cells were examined and photographed with an optical microscope. The distance between the edges of the scratched area was measured and calculated to estimate the migratory ability of cells.
As illustrated in FIG. 3(a), wound-healing assays used an ovarian carcinoma A2780 cell line in the presence of F-RUT (0-5 μM) for 0-24 h. The migration rate was measured using imaging software, and Student's t-test was used for the statistical analysis.

Regarding `O=c1c2ccccc2nc2n1CCc1c-2[nH]c2ccccc12` [RUT, Rutaecarpine], the “average thickness of blood-air-barrier” value in the data set with KLF10 KO mice [1] was found to be 418 nm.
On to `COc1ccc2c(=O)n3c(nc2c1)-c1[nH]c2ccc(F)cc2c1CC3` [F-RUT, 10-fluoro-2-methoxyrutaecarpine], for which the cytotoxicity result was “substantially no cytotoxicity” in the data set with H460; “substantially no cytotoxicity” with CL1-3; “substantially no cytotoxicity” in the data set on RAW264.7 (RAW264.7 cells, 0-20 μM, 24 h, FIG. 1(c)). The cell invasion result in the data set with A2780 cells [2] is “invasion inhibitory activity”. Further, in the data set on TNF-α, the “TNF-α released into the medium” value is “suppressive effect of TNF-α released into the medium”. For the same molecule, in the data set on TRPV1, the “increase of TRPV1 protein amounts compared to the control group” value is given as “two-fold”. Also, the iNOS protein expression result in the data set with iNOS is listed as “suppressed their expressions in a concentration-dependent manner”. Moreover, the NO production entry in the data set with RAW264.7 macrophages is “suppressed NO production in a concentration-dependent (0-20 μM) manner”. Moreover, the OVA/alum-induced lung inflammation entry is recorded as “ameliorated the OVA/alum-induced lung inflammation” in the data set with BALB/c mice and “ameliorated the OVA/alum-induced lung inflammation” in the data set on KLF10 KO mice [5] (KLF-10 KO mice, alternate-day oral administration, FIG. 5(b)). In addition, the “average thickness of blood-air-barrier” value in the data set on KLF10 KO mice [1] is 393 nm. For the same molecule, the “increase of phosphorylation of eNOS compared to the control group” value in the data set with eNOS turned out to be 1.4 fold. In the data set with COX-2 [3], the COX-2 enzyme activity result is recorded as “the enzyme activity is also inhibited”. The “cytotoxicity compared to RUT” value in the data set on RAW264.7 (compared to RUT) is “less cytotoxicity”. Besides, in the data set with COX-2 [4], the COX-2 protein expression entry is reported as “suppressed their expressions in a concentration-dependent manner”. Also, the “LPS-induced ROS level” value in the data set with zebrafish is reported as “suppressed the LPS-induced ROS”. Moreover, the “LPS-induced NF-κB transcriptional activity” value in the data set on NF-κB was “inhibited LPS-induced NF-κB transcriptional activity”. In addition, in the data set on KLF10 KO mice [5] (KLF10 KO mice, oral administration, 25% in OVA/Alum group, FIG. 5(c)), the “collagen formation around the bronchus” value turned out to be 18%. Further, the cell migration entry in the data set with A2780 cells [6] is recorded as “significant effects against cell migration”.
